Results on 15 molecules are retold here after patent US20260042764A1, “COMPOSITIONS AND METHODS FOR INHIBITION OF KRAS” (TheRas, Inc., priority 2022, published 2026).

One assay has as its system SW620 cells (KRAS G12V). Kind of assay: Cell-based pERK HTRF assay in SW620 cell (Biological Example 4). Particulars: Homo sapiens, SW-620, SW620 (KRAS G12V) cells. The method, boiled down:
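This assay measures inhibition of ERK phosphorylation downstream of KRAS G12V in intact SW620 cells. Compounds are applied for 4 h over nine half-log concentrations starting at 1 μM, and pERK is quantified by HTRF.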
A general note: TR-FRET usually uses a lanthanide donor and a delayed reading to cut background.

The target in assay [1] is T1, Avi-KRAS G12D (2-169) GTP/RAF1 RBD-3xFLAG (51-131) (Homo sapiens, UniProt P01116, G12D).
T1 construct: Avi-KRAS G12D (2-169)
T1 sequence (P01116 2-169 isoform P01116-2 G12D): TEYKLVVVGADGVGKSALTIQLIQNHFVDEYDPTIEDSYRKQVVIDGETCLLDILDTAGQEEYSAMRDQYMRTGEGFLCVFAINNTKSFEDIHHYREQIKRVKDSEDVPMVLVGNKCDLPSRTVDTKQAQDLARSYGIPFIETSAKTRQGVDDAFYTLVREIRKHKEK
Description: Raf1-KRAS G12D-GTP disruption HTRF assay (Biological Example 3). Type of assay: binding. As to conditions: KRAS G12D, GTP-loaded. The method, boiled down:
(§1)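 Each KRAS-GTP/RAF1 RBD complex at 50 nM, with 75 nM 3xFLAG-RAF1 RBD (51-131)-Avi, in 50 mM Tris pH 7.5, 100 mM NaCl, 5 mM MgCl2, 0.1% BSA, 0.01% Tween 20, 10% DMSO. Compounds titrated from 30 μM, 10-point 3x series; 1 h at room temperature with shaking. HTRF read, activity as percent of DMSO.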

Assay [2] addresses T2, Avi-KRAS WT (2-169) GTP/RAF1 RBD-3xFLAG (51-131) (Homo sapiens, UniProt P01116).
T2 construct: Avi-KRAS WT (2-169)
Kind of assay: Raf1-KRAS WT-GTP disruption HTRF assay (Biological Example 3). As to conditions: KRAS WT, GTP-loaded. Type of assay: binding. The method, boiled down:
as §1

Assay [3] concerns the target T3, Avi-KRAS G12C (2-169) GTP/RAF1 RBD-3xFLAG (51-131) (Homo sapiens, UniProt P01116, G12C).
T3 construct: Avi-KRAS G12C (2-169)
Kind of assay: Raf1-KRAS G12C-GTP disruption HTRF assay (Biological Example 3). Format: binding. Particulars: KRAS G12C, GTP-loaded. The method, boiled down: as §1

The target in assay [4] is T4, Avi-KRAS G12V (2-169) GTP/RAF1 RBD-3xFLAG (51-131) (Homo sapiens, UniProt P01116, G12V).
T4 construct: Avi-KRAS G12V (2-169)
T4 sequence (P01116 2-169 isoform P01116-2 G12V): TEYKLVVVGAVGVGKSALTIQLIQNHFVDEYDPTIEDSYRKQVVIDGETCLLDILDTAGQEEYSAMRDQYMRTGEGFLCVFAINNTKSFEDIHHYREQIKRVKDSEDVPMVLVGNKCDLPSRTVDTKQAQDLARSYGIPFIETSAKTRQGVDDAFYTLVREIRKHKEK
Description: Raf1-KRAS G12V-GTP disruption HTRF assay (Biological Example 3). Format: binding. Particulars: KRAS G12V, GTP-loaded. The method, boiled down:
as §1

The subject of another assay is GP2d cells (KRAS G12D). Description: Cell-based pERK HTRF assay in GP2d cell (Biological Example 2). As to conditions: GP2d, GP2d (KRAS G12D) cells. In a few lines: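 60 min compound, 0.25% DMSO, 9-pt half-log curve from 1 μM or 100 nM; DMEM/10% FBS.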

By IC50 is commonly meant the concentration that inhibits the measured activity by half. A higher IC50 goes with weaker potency in that assay.

Each structure is given as a SMILES string.

T2 sequence (P01116 2-169 isoform P01116-2): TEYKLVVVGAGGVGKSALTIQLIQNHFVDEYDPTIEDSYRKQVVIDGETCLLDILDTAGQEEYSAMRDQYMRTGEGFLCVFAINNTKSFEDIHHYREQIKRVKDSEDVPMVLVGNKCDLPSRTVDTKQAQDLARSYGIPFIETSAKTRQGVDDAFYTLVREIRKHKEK
T3 sequence (P01116 2-169 isoform P01116-2 G12C): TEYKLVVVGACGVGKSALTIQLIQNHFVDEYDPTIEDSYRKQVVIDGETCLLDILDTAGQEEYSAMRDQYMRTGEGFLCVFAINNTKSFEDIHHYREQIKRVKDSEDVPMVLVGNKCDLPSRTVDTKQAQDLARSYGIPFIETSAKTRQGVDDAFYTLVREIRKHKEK

Consider `CCN(c1nc(OC[C@@]23CCCN2C[C@H](F)C3)nc2c(F)c(-c3ccc(F)c4sc(N)c(C#N)c34)c(C(F)(F)F)cc12)[C@H]1CCN(C(=O)OCC(F)(F)F)C1` (atropisomer, axis not shown) [Compound 849], for which the IC50 in the assay on SW620 cells (KRAS G12V) is under 100 nM; in assay [1] it was 100 to 1000 nM; in assay [2], 100 to 1000 nM; in assay [3], 100 to 1000 nM; in assay [4], 100 to 1000 nM; in the assay on GP2d cells (KRAS G12D), under 100 nM.

Take `CN(Cc1cnoc1)c1nc(OC[C@@]23CCCN2C[C@H](F)C3)nc2c(F)c(-c3ccc(F)c4sc(N)c(C#N)c34)c(C(F)(F)F)cc12` (atropisomer, axis not shown) [Compound 935]: the IC50 in the assay with SW620 cells (KRAS G12V) was under 100 nM; in assay [1] it was 100 to 1000 nM; in assay [2] it was 100 to 1000 nM; in assay [3], 100 to 1000 nM; in assay [4], 100 to 1000 nM; with GP2d cells (KRAS G12D) it was under 100 nM.

As for `CCN(c1nc(OC[C@@]23CCCN2C[C@H](F)C3)nc2c(F)c(-c3ccc(F)c4sc(N)c(C#N)c34)c(C(F)(F)F)cc12)[C@H]1CCN(C(=O)[C@@H]2CC2(F)F)[C@H]1C` (atropisomer, axis not shown) [Compound 887], the IC50 with SW620 cells (KRAS G12V) is 100 to 1000 nM; in assay [1] it was 1000 to 10000 nM; in assay [2], 1000 to 10000 nM; in assay [3] it was 1000 to 10000 nM; in assay [4] it was 1000 to 10000 nM; with GP2d cells (KRAS G12D), under 100 nM.

As for `CCN(c1nc(OC[C@@]23CCCN2C[C@H](F)C3)nc2c(F)c(-c3ccc(F)c4sc(N)c(C#N)c34)c(C(F)(F)F)cc12)[C@H]1CCN(C(=O)OC2CCOCC2)[C@@H]1C` (atropisomer, axis not shown) [Compound 825], the IC50 is under 100 nM in the assay on SW620 cells (KRAS G12V); 100 to 1000 nM in assay [1]; 100 to 1000 nM in assay [2]; 100 to 1000 nM in assay [3]; 100 to 1000 nM in assay [4]; under 100 nM in the assay on GP2d cells (KRAS G12D).

On to `CCN(c1nc(OC[C@@]23CCCN2C[C@H](F)C3)nc2c(F)c(-c3ccc(F)c4sc(N)c(C#N)c34)c(C(F)(F)F)cc12)[C@@H]1CN2C(=O)N(C)C[C@]2(C)C1` (atropisomer, axis not shown) [Compound 858], for which the IC50 in the assay with SW620 cells (KRAS G12V) was under 100 nM; in assay [1] it was 100 to 1000 nM; in assay [2], 100 to 1000 nM; in assay [3] it was 100 to 1000 nM; in assay [4], 100 to 1000 nM; in the assay with GP2d cells (KRAS G12D), under 100 nM.

In the case of `CCN(c1nc(OC[C@@]23CCCN2C[C@H](F)C3)nc2c(F)c(-c3ccc(F)c4sc(N)c(C#N)c34)c(C(F)(F)F)cc12)[C@H]1C[C@H]2[C@H](C)N(C)C(=O)N2C1` (atropisomer, axis not shown) [Compound 863], the IC50 is under 100 nM in the assay on SW620 cells (KRAS G12V); at most 100 nM in assay [1]; 100 to 1000 nM in assay [2]; at most 100 nM in assay [3]; at most 100 nM in assay [4]; under 100 nM with GP2d cells (KRAS G12D).

For the molecule `CCN(c1nc(OC[C@@]23CCCN2C[C@H](F)C3)nc2c(F)c(-c3ccc(F)c4sc(N)c(C#N)c34)c(C(F)(F)F)cc12)[C@H]1C[C@H](C)N(C(=O)[C@@H]2CCO2)C1` (atropisomer, axis not shown) [Compound 922], the IC50 was under 100 nM with SW620 cells (KRAS G12V); at most 100 nM in assay [1]; 100 to 1000 nM in assay [2]; at most 100 nM in assay [3]; at most 100 nM in assay [4]; under 100 nM in the assay with GP2d cells (KRAS G12D).

As for `CCN(c1nc(OC[C@@]23CCCN2C[C@H](F)C3)nc2c(F)c(-c3ccc(F)c4sc(N)c(C#N)c34)c(C(F)(F)F)cc12)[C@H]1CCN(C(=O)O[C@@H]2CCCOC2)C1` (atropisomer, axis not shown) [Compound 796], the IC50 with SW620 cells (KRAS G12V) is under 100 nM; in assay [1] it was 100 to 1000 nM; in assay [2], 100 to 1000 nM; in assay [3], 100 to 1000 nM; in assay [4], 100 to 1000 nM; with GP2d cells (KRAS G12D), under 100 nM.

`CCN(c1nc(OC[C@@]23CCCN2C[C@H](F)C3)nc2c(F)c(-c3ccc(F)c4sc(N)c(C#N)c34)c(C(F)(F)F)cc12)[C@H]1CCN(C(=O)N(C)C)[C@@H]1COC` (atropisomer, axis not shown) [Compound 921]: the IC50 in the assay on SW620 cells (KRAS G12V) was under 100 nM; in assay [1], 100 to 1000 nM; in assay [2] it was 100 to 1000 nM; in assay [3], 100 to 1000 nM; in assay [4], 100 to 1000 nM; in the assay on GP2d cells (KRAS G12D), under 100 nM.

In the case of `CN(c1nc(OC[C@@]23CCCN2C[C@H](F)C3)nc2c(F)c(-c3ccc(F)c4sc(N)c(C#N)c34)c(C(F)(F)F)cc12)[C@H]1CC(=O)N2CCC[C@H]12` (atropisomer, axis not shown) [Compound 934], the IC50 in the assay on SW620 cells (KRAS G12V) is under 100 nM; in assay [1], 100 to 1000 nM; in assay [2], 100 to 1000 nM; in assay [3], 100 to 1000 nM; in assay [4] it was 100 to 1000 nM; in the assay on GP2d cells (KRAS G12D) it was under 100 nM.

In the case of `CN(Cc1ccccn1)c1nc(OC[C@@]23CCCN2C[C@H](F)C3)nc2c(F)c(-c3ccc(F)c4sc(N)c(C#N)c34)c(C(F)(F)F)cc12` (atropisomer, axis not shown) [Compound 865], the 50% inhibitory concentration (IC50) was under 100 nM in the assay with SW620 cells (KRAS G12V); 100 to 1000 nM in assay [1]; 1000 to 10000 nM in assay [2]; 1000 to 10000 nM in assay [3]; 1000 to 10000 nM in assay [4]; under 100 nM in the assay with GP2d cells (KRAS G12D).

Take `CN(Cc1cnccn1)c1nc(OC[C@@]23CCCN2C[C@H](F)C3)nc2c(F)c(-c3ccc(F)c4sc(N)c(C#N)c34)c(C(F)(F)F)cc12` (atropisomer, axis not shown) [Compound 872]: the IC50 in the assay with SW620 cells (KRAS G12V) is under 100 nM; in assay [1] it was 100 to 1000 nM; in assay [2], 1000 to 10000 nM; in assay [3], 100 to 1000 nM; in assay [4], 100 to 1000 nM; in the assay on GP2d cells (KRAS G12D), under 100 nM.

Consider `CCN(c1nc(OC[C@@]23CCCN2C[C@H](F)C3)nc2c(F)c(-c3ccc(F)c4sc(N)c(C#N)c34)c(C(F)(F)F)cc12)[C@H]1CCN(C(=O)OCC2COC2)[C@@H]1C` (atropisomer, axis not shown) [Compound 835], for which the IC50 was under 100 nM in the assay with SW620 cells (KRAS G12V); 100 to 1000 nM in assay [1]; 1000 to 10000 nM in assay [2]; at most 100 nM in assay [3]; 100 to 1000 nM in assay [4]; under 100 nM with GP2d cells (KRAS G12D).

As for `CCN(c1nc(OC[C@@]23CCCN2C[C@H](F)C3)nc2c(F)c(-c3ccc(F)c4sc(N)c(C#N)c34)c(C(F)(F)F)cc12)[C@H]1CCN(C(=O)N2CC(F)C2)[C@H]1C` (atropisomer, axis not shown) [Compound 818], the IC50 was under 100 nM in the assay with SW620 cells (KRAS G12V); 1000 to 10000 nM in assay [1]; 1000 to 10000 nM in assay [2]; 1000 to 10000 nM in assay [3]; 1000 to 10000 nM in assay [4]; under 100 nM in the assay with GP2d cells (KRAS G12D).

Turning to `[2H][C@]1(N(CC)c2nc(OC[C@@]34CCCN3C[C@H](F)C4)nc3c(F)c(-c4ccc(F)c5sc(N)c(C#N)c45)c(C(F)(F)F)cc23)CCN(C(=O)N(C)C)C1` (atropisomer, axis not shown) [Compound 859], the IC50 with SW620 cells (KRAS G12V) was under 100 nM; in assay [1] it was 100 to 1000 nM; in assay [2], 100 to 1000 nM; in assay [3], 100 to 1000 nM; in assay [4], 100 to 1000 nM; in the assay on GP2d cells (KRAS G12D), under 100 nM.
